Test results published in patent US9084791B2, “Method of inhibiting myopia and application of an adenylyl cyclase inhibitor as a drug for inhibiting myopia” (SCHOOL OF OPHTHALMOLOGY AND OPTOMETRY, WENZHOU MEDICAL …, priority 2010, dated 2015).

Test system: form-deprivation myopia of guinea pigs
Assay: Monocular form-deprivation myopia in guinea pigs, sub-conjunctival injection
Format: in vivo, guinea pig
Conditions: form-deprivation eyes, 1 μM and 100 μM sub-conjunctival injection daily, after 4 weeks, vs vehicle control group
Experimental: Experimental animals were 3 weeks old, UK variety, three-color and short-haired guinea pigs. Monocular form-deprivation (FD) was performed by using a facemask, and the form-deprivation eyes were treated with adenylyl cyclase inhibitor (ACI) SQ22536 at different concentrations (for example, 1 μM and 100 μM) by sub-conjunctival injection, so as to differently decrease intraocular cAMP levels. Animals were divided into 4 groups randomly: form-deprivation control group (FD+non-injection), form-deprivation+vehicle control group (FD+vehicle) (vehicle here refers to 0.9% saline), form-deprivation+drug groups (FD+1 μM SQ22536 group and FD+100 μM SQ22536 group). Drugs were sub-conjunctivally injected at 9:00 am every day for 4 weeks. The contralateral eyes were not treated. Refraction were measured with an infrared eccentric refractometer (EIR). Corneal curvature radii were measured with a keratometer. Eye axis parameters, such as vitreous chamber depths and axial lengths, were measured with an A-scan ultrasonograph (11 MHz), respectively, before experiment, 2 weeks after treatment, and 4 weeks after treatment.

## Nc1ncnc2c1ncn2C1CCCO1 (stereo not drawn) [SQ22536, 9-(Tetrahydro-2-furanyl)-9H-purin-6-amine]
time- and concentration-dependent effect (FIG. 1)
  myopic refractive error (refraction difference between experimental eye and contralateral eye): less than that of the vehicle control group
time- and concentration-dependent effect (FIG. 2)
  vitreous chamber elongation (vitreous chamber depth difference between experimental eye and contralateral eye): significantly less than that of the vehicle control group
time- and concentration-dependent effect (FIG. 3)
  axial elongation (axial length difference between experimental eye and contralateral eye): significantly less than that of the vehicle control group
